The source of these data is patent US4526891A, “Substituted alkyl amine derivatives of 6,11-dihydro-11-oxodibenz[b,e]oxepins” (Hoechst Roussel Pharmaceuticals Inc., priority 1983, dated 1985).

The subject of the assay is 2-phenyl-1,4-benzoquinone-induced writhing. In words: 2-phenyl-1,4-benzoquinone-induced writhing test in mice (analgesia). The conditions noted are these: for ED50: Mus musculus. It counts as in vivo.
Where [1] appears, read: po, read-out: ED50 (dosage which exhibits 50% inhibition of writhing).

As a reminder, the ED50 is the midpoint of the dose-response relation.

Where two headings read alike, the source gives them in different places.

Take `CCC(=O)O[C@](Cc1ccccc1)(c1ccccc1)[C@H](C)CN(C)C` [propoxyphene, reference compound]: the median effective dose (ED50) (sc, read-out: dose giving 50% inhibition of writhing (ED50)) worked out at 3.9 mg/kg.
`O=C1c2ccccc2COc2ccc(CCN3CCN(c4ccccc4)CC3)cc21` [1-[2-(6,11-Dihydro-11-oxodibenz[b,e]oxepin-2-yl)ethyl]-4-phenylpiperazine]: for the setting “oral dose, ** ED50, 50% inhibition, read-out: ED50 (dosage which exhibits 50% inhibition of writhing)”, the ED50 stood at 25 mg/kg.
For `CN(C)CCc1ccc2c(c1)C(=O)c1ccccc1CO2.Cl` [2-(6,11-Dihydro-11-oxodibenz[b,e]oxepin-2-yl)-N,N-dimethylethylamine hydrochloride], the “% Inhibition of writhing” value (25 mg/kg of body weight, subcutaneously (*)) came to 66%.
For `Cl.NCCc1ccc2c(c1)C(=O)c1ccccc1CO2` [2-(6,11-Dihydro-11-oxodibenz[b,e]oxepin-2-yl)ethylamine hydrochloride], under setting [1], the 50% effective dose (ED50) is 7.4 mg/kg.
The same measure, in the same setting: next, `CNCCc1ccc2c(c1)C(=O)c1ccccc1CO2.Cl` [2-(6,11-Dihydro-11-oxodibenz[b,e]oxepin-2-yl)-N-methylethylamine hydrochloride]: 9.8 mg/kg.
